Experiments:
[1] = system: recombinant HMPV CAN97-83 (MPV-GFP1); test: HMPV antiviral assay (MPV-GFP1 eGFP fluorescence in Vero E6 cells); format: cell-based; conditions: human metapneumovirus, Vero C1008, 120 h, read-out: HMPV EC50
Protocol: HMPV antiviral activity was evaluated using a recombinant version of HMPV CAN97-83 engineered to contain the coding sequence for enhanced green fluorescence protein (eGFP) in the 3′ end of the virus genome (MPV-GFP1, ViraTree). Vero E6 cells ([…]) were seeded at a density of 12,000 cells/100 μL/well into 96-well cell plates one day prior to the assay. On the day of screening, the cell culture medium was aspirated from the wells and cells were washed twice with serum-free Eagle's Modified Essential Medium (EMEM, ATCC #) containing 1% penicillin-streptomycin (Invitrogen) (SF-EMEM). Cell washes were performed by dispensing 100 μL SF-EMEM per well and immediately aspirating the wash medium from the well. Following the second wash step, serum-free OptiMEM (Invitrogen, Cat No.) (SF-OptiMEM) containing 0.5 μg/mL TPCK-Trypsin (VENDOR) and 1% penicillin-streptomycin was added to the cells at 50 μL/well. Compounds were added into the 96-well plates using a JANUS automated liquid handling system (VENDOR). Compounds were initially diluted 1:50 into an intermediate 96-well plate containing SF-OptiMEM prior to transfer to the assay plate (25 μL/well). Each of the test compounds were tested in duplicate wells at final concentrations starting from 8 μM or 2 μM using ½ stepwise dilutions for a total of 8 points. Virus infection was performed by preparing a working stock of MPV-GFP1 at a multiplicity of infection (MOI) equal to 0.05/25 μL and aliquoting 25 μL of virus inoculum to the compound and positive control wells. SF-OptiMEM was added (25 μL/well) to the appropriate wells to serve as a virus-free negative control for the assay. The final DMSO concentration of all wells is 0.5%. Plates were incubated at 32° C., 5% CO2 for 5 days.
After 5 days incubation, eGFP fluorescence intensity was measured at […] using a Spectramax i3X plate reader (VENDOR). Percent viral inhibition was calculated using the following equation: y=[[…]−(XQ/XP)]×100 Where XQ is the fluorescence intensity measured in a well containing recombinant MPV-GFP1-infected, compound-treated cells and XP is the average fluorescence intensity measured in the wells containing untreated cells infected with recombinant virus. EC50 values were then calculated by non-linear regression using a four parameter curve logistic equation. The curve fit model employed was XLFit Dose Response One Site Model 200: y=(A+(B/(1+((x/C)^D)))) Where A is the minimum y value, B is the maximum y value, C is the log EC50 value, and D is the slope factor. […] EC50 ranges are as follows: A<0.5 μM; B>0.5 μM.

[2] = system: genotype A, "Long" strain RSV; test: RSV-A assay (CPE, ATPlite readout in Hep-2 cells); format: cell-based; conditions: human respiratory syncytial virus, HEp-2, Hep-2 cells, genotype A "Long" strain RSV, MOI 0.1; read-out: Human RSV-A (“Long” strain) EC50
Outline: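 Protection from RSV-induced cytopathic effect, measured as ATPlite luminescence after 5 days, gave EC50 values. Assay used genotype A Long strain at MOI 0.1 on Hep-2 cells seeded at 8,000/well in DMEM growth media with 10% FBS; compounds tested as 2-fold dilutions in duplicate.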

Structure (SMILES) | EC50 [1] [nM] | EC50 [2] [nM]
CCc1cnc2c(OC)cc(C(=O)NC[C@](O)(c3cc4c(c(-c5ccc(F)cc5)n3)OC[C@]4(C)C(N)=O)C(F)(F)F)cc2c1 [Example 262] | > 500 | < 200
CC(C)(CO)NC(=O)[C@@]1(C)COc2c1cc([C@@](O)(CNC(=O)c1cc(OC3CC3)c3ncccc3c1)C(F)(F)F)nc2-c1ccc(F)cc1 [Example 482] | > 500 | < 200
COc1cc(C(=O)NC[C@](O)(c2cc3c(c(-c4ccc(F)cc4)n2)OC[C@]3(C)C(N)=O)C2CC2)cc2cc(C3CC3)cnc12 [Example 522] | < 500 | < 200
Cc1cnc2c(Oc3ncccn3)cc(C(=O)NC[C@](O)(c3cc4c(c(-c5ccc(F)cc5)n3)OC[C@]4(C)C(N)=O)C(F)(F)F)cc2c1 [Example 615] | > 500 | < 200
COc1cc(C(=O)NC[C@](O)(c2cc3c(c(-c4ccc(F)cc4)n2)OC[C@]3(C)C(N)=O)C2CC2)cc2cc(C)cnc12 [Example 256] | < 500 | < 200
Cc1cc2cc(C(=O)NC[C@](O)(c3cc4c(c(-c5ccc(F)cc5)n3)OC[C@]4(C)C(N)=O)C(F)(F)F)ccc2nn1 [Example 616] | < 500 | < 200
COc1cc(C(=O)NC[C@](O)(c2cc3c(c(-c4ccc(F)cc4)n2)OC[C@]3(C)CC(N)=O)C(F)(F)F)cc2cccnc12 [Example 75] | > 500 | < 200
CC(C)(O)CNC(=O)[C@@]1(C)COc2c1cc([C@@](O)(CNC(=O)c1ccc3nc(N)sc3c1)C(F)(F)F)nc2-c1ccc(F)cc1 [Example 497] | > 500 | < 200
COc1cc(C(=O)NC[C@](O)(c2cc3c(c(-c4ccc(F)cc4)n2)OC[C@]3(C)C(N)=O)C(F)(F)F)cc2ccncc12 [Example 361] | > 500 | < 200
C[C@]1(C(N)=O)COc2c1cc([C@@](O)(CNC(=O)c1cc(OC(F)(F)F)c3nc(N)sc3c1)C(F)(F)F)nc2-c1ccc(F)cc1 [Example 541] | > 500 | < 200
C[C@]1(C(N)=O)COc2c1cc([C@@](O)(CNC(=O)c1cc(Nc3cnccn3)c3ncccc3c1)C(F)(F)F)nc2-c1ccc(F)cc1 [Example 341] | > 500 | < 200
Cc1cnc2c(Nc3nccnn3)cc(C(=O)NC[C@](O)(c3cc4c(c(-c5ccc(F)cc5)n3)OC[C@]4(C)C(N)=O)C(F)(F)F)cc2c1 [Example 613] | < 500 | < 200
C[C@]1(C(N)=O)COc2c1cc([C@@](O)(CNC(=O)c1ccc3[nH]ncc3c1)C(F)(F)F)nc2-c1ccc(F)cc1 [Example 588] | > 500 | < 200
C[C@](O)(CNC(=O)c1cc(OC2CC2)c2ncccc2c1)c1cc2c(c(-c3ccc(F)cc3)n1)OC[C@]2(C)C(N)=O [Example 265] | < 500 | < 200
COc1ncc(C(=O)NC[C@](O)(c2cc3c(c(-c4ccc(F)cc4)n2)OC[C@]3(C)CNCC2CC2)C(F)(F)F)s1 [Example 36] | > 500 | > 200
C[C@]1(C(=O)NCc2ccco2)COc2c1cc([C@@](O)(CNC(=O)c1cc(OC3CC3)c3ncccc3c1)C(F)(F)F)nc2-c1ccc(F)cc1 [Example 475] | < 500 | < 200
COc1cc(C(=O)NC[C@](O)(c2cc3c(c(-c4ccc(F)cc4)n2)OC[C@]3(C)C(N)=O)C(F)(F)F)cc2sc(C)nc12 [Example 562] | < 500 | < 200
C[C@]1(C(N)=O)COc2c1cc([C@@](O)(CNC(=O)c1cc(NCC(N)=O)c3ncccc3c1)C(F)(F)F)nc2-c1ccc(F)cc1 [Example 384] | > 500 | < 200

Structure (SMILES) | EC50 [1] [nM] | EC50 [2] [nM]
C[C@]1(C(N)=O)COc2c1cc([C@@](O)(CNC(=O)c1cc(OC(F)(F)F)c3nc(N)sc3c1)C(F)(F)F)nc2-c1ccc(F)c(Cl)c1 [Example 542] | < 500 | < 200
COc1cc(C(=O)NC[C@](O)(c2cc3c(c(-c4ccc(F)cc4)n2)OC[C@]3(C)C(N)=O)C(F)(F)F)cc2cc(C3CC3)cnc12 [Example 519] | < 500 | < 200
Cc1cnc2c(NC(=O)NC3(C)CC3)cc(C(=O)NC[C@](O)(c3cc4c(c(-c5ccc(F)cc5)n3)OC[C@]4(C)C(N)=O)C(F)(F)F)cc2c1 [Example 550] | < 500 | < 200
Cc1ccc2cc(C(=O)NC[C@](O)(c3cc4c(c(-c5ccc(F)cc5)n3)OC[C@]4(C)C(N)=O)C(F)(F)F)cc(NC(=O)C3(F)CC3)c2n1 [Example 627] | > 500 | < 200
CNC(=O)CNC(=O)[C@@]1(C)COc2c1cc([C@@](O)(CNC(=O)c1cc(OC3CC3)c3ncccc3c1)C(F)(F)F)nc2-c1ccc(F)cc1 [Example 473] | > 500 | < 200
COc1cc(C(=O)NC[C@](O)(c2cc3c(c(-c4ccc(F)cc4)n2)OC[C@]3(C)C(N)=O)C(F)(F)F)ccc1OC1CC1 [Example 62] | < 500 | < 200
C[C@]1(C(N)=O)COc2c1cc([C@@](O)(CNC(=O)c1cc(Oc3cnccn3)c3ncccc3c1)C(F)(F)F)nc2-c1ccc(F)cc1 [Example 387] | > 500 | < 200
C[C@]1(C(N)=O)COc2c1cc([C@@](O)(CNC(=O)c1cc(Cl)c3ncccc3c1)C(F)(F)F)nc2-c1ccc(F)cc1 [Example 221] | < 500 | < 200
CN(C)C(=O)COc1cc(C(=O)NC[C@](O)(c2cc3c(c(-c4ccc(F)cc4)n2)OC[C@]3(C)C(N)=O)C(F)(F)F)cc2cccnc12 [Example 373] | > 500 | < 200
COc1cc(C(=O)NC[C@](O)(c2cc3c(c(-c4ccc(F)cc4)n2)OC[C@]3(C)C(N)=O)C(F)(F)F)cc2ccc(C)nc12 [Example 222] | < 500 | < 200
C[C@]1(C(N)=O)COc2c1cc([C@](O)(CNC(=O)c1cc(OC3CC3)c3ncccc3c1)C(F)(F)F)nc2-c1csc2c(F)cccc12 [Example 81] | < 500 | < 200
Cc1ncoc1-c1ccc(C(=O)NC[C@](O)(c2cc3c(c(-c4ccc(F)cc4)n2)OC[C@]3(C)C(N)=O)C(F)(F)F)cc1OC1CC1 [Example 180] | > 500 | < 200
Cc1nc(C(=O)Nc2cc(C(=O)NC[C@](O)(c3cc4c(c(-c5ccc(F)cc5)n3)OC[C@]4(C)C(N)=O)C(F)(F)F)cc3cccnc23)co1 [Example 397] | > 500 | < 200
COc1cc(C(=O)NC[C@](O)(c2cc3c(c(-c4ccc(F)c(Cl)c4)n2)OC[C@]3(C)C(N)=O)C(F)(F)F)cc2cc(C)cnc12 [Example 257] | < 500 | < 200
C[C@]1(C(N)=O)COc2c1cc([C@@](O)(CNC(=O)c1cc(OC3CC3)c3ncccc3c1)C(F)(F)F)nc2-c1ccc(F)cc1 [Example 61] | < 500 | < 200
CC(C)(O)[C@H](F)CNC(=O)[C@@]1(C)COc2c1cc([C@@](O)(CNC(=O)c1cc(OC3CC3)c3ncccc3c1)C(F)(F)F)nc2-c1ccc(F)cc1 [Example 459] | > 500 | < 200
Cc1cnc2c(Nc3ncncn3)cc(C(=O)NC[C@](O)(c3cc4c(c(-c5ccc(F)cc5)n3)OC[C@]4(C)C(N)=O)C(F)(F)F)cc2c1 [Example 611] | > 500 | < 200
Cc1nc2cc(C(=O)NC[C@](O)(c3cc4c(c(-c5ccc(F)cc5)n3)OC[C@]4(C)C(N)=O)C(F)(F)F)ccc2[nH]1 [Example 600] | > 500 | < 200

Reference: patent US11505558B1, “Antiviral heterocyclic compounds” (Enanta Pharmaceuticals, Inc., priority 2019, dated 2022)
